These molecules were tested against T1, CBDN1 (Cellulomonas fimi, UniProt P14090) (assay: Isothermal titration microcalorimetry of oligosaccharide binding). Details: N1 binding, 35° C., Table 8.
T1 construct: Cex leader peptide (secretion signal of the vector) (N); made in house; purified from the culture supernatant
T1 sequence (P14090 33-184): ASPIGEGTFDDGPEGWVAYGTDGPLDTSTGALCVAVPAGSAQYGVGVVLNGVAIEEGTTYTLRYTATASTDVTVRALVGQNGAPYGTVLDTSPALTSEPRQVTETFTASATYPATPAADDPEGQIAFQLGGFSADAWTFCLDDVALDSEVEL
Source text: The PBP can be obtained following isolation and purification of the enzyme by clipping off the PBP from the remainder of the enzyme. For use in the phase separation system, the PBP is screened for binding to soluble phase-forming oligosaccharides. While any of a number of methods can be used for screening, including NMR alone, NMA/calorimetry, affinity electrophoresis alone, affinity electrophoresis/competition assay, and binding isotherms. Binding equilibrium studies using isothermal titration microcalorimetry (ITC) are preferred. The advantage of isothermal titration microcalorimetry […] in binding equilibrium studies derives from the fact that binding isotherms are defined by the experiment in terms of heats of reaction; as such, they allow a direct estimation of enthalpy (and entropy (changes in addition to the association constant. Thus, a single microcalorimetric titration provides a complete characterization of the binding energetics along with the binding isotherm. (Haynes et al., J. Colloid Interface Sci., (1994) 169:313; Colloids & Surfaces, (1994) 2:517.
Microcalorimetry was used to measure binding thermodynamics for CBDN1 to a wide range of water-soluble oligosaccharides with the aim of identifying a set of suitable ligands for the affinity partition system. […] For both oligosaccharides,CPDN1 binding is as tight or even tighter than nearly all PEG-based affinity ligands (e.g., Cibacron blue-PEG, Procion red-PEG, dinitrophenyl-PEG, diacetic acid-PEG) currently in use in affinity partition systems.

| SMILES | -TΔS^o [kJ/mol] | ΔH^o [kJ/mol] |
| --- | --- | --- |
| OC[C@H]1O[C@@H](O[C@H]2[C@H](O)[C@@H](O)[C@H](O[C@H]3[C@H](O)[C@@H](O)[C@H](O[C@H]4[C@H](O)[C@@H](O)[C@H](O[C@H]5[C@H](O)[C@@H](O)[C@H](O[C@H]6[C@H](O)[C@@H](O)C(O)O[C@@H]6CO)O[C@@H]5CO)O[C@@H]4CO)O[C@@H]3CO)O[C@@H]2CO)[C@H](O)[C@@H](O)[C@@H]1O (stereo partly drawn) [Cellohexaose] | 3.31 | -28.9 ± 0.84 |
| OC[C@H]1O[C@@H](O[C@H]2[C@H](O)[C@@H](O)[C@H](O[C@H]3[C@H](O)[C@@H](O)[C@H](O[C@H]4[C@H](O)[C@@H](O)[C@H](O[C@H]5[C@H](O)[C@@H](O)C(O)O[C@@H]5CO)O[C@@H]4CO)O[C@@H]3CO)O[C@@H]2CO)[C@H](O)[C@@H](O)[C@@H]1O (stereo partly drawn) [Cellopentaose] | 3.6 | -28.5 ± 0.84 |
| OC[C@H]1O[C@@H](O[C@H]2[C@H](O)[C@@H](O)[C@H](O[C@H]3[C@H](O)[C@@H](O)[C@H](O[C@H]4[C@H](O)[C@@H](O)C(O)O[C@@H]4CO)O[C@@H]3CO)O[C@@H]2CO)[C@H](O)[C@@H](O)[C@@H]1O (stereo partly drawn) [Cellotetraose] | 5.86 ± 0.42 | -26.8 ± 0.84 |
